Results taken from paper PMC4068353, “Characterization of 14-3-3-ζ Interactions with Integrin Tails” (Journal of Molecular Biology, 2013).
Entries after “also recorded” stand apart in the source; their conditions may differ.

Key:
14-3-3-ζ S58A = test: NMR binding of 14-3-3-ζ variant S58A to labeled integrin tail; conditions: labeled β1A
Text: (§1) To gain further insight into the β1A/14-3-3-ζ association, we investigated the effects of 14-3-3-ζ substitutions on binding to β1A integrin tail. It has been reported that the substitution S58A in 14-3-3-β abolishes the β1A interaction.[38] S58 regulates the dimeric state of 14-3-3,[39] but it is not involved directly in binding to phospho-peptides. The binding of 14-3-3-ζ variants S58A and S58E to labeled β1A was studied using NMR. […] A similar result was obtained with the β2 integrin tail (data not shown).
(§2) Samples were prepared in NMR buffer (pH 6.5) with 5% D2O, and experiments were performed at 25 °C. Titration experiments were collected on a 500-MHz spectrometer using a water flip-back-embedded gradient enhanced ^15N–^1H HSQC pulse sequence.[46] For the assignment of the α4 and β2 backbone resonances, ^15N–^13C integrin tails of 0.6 mM concentration were used to measure CBCA(CO)NH and CBCANH experiments on a Bruker 500-MHz instrument equipped with a cryogenic probe head. Data were processed using NMRPipe[47] and analyzed with the programs CARA/XEASY[48] or CCPN Analysis.[49]

14-3-3-ζ S58E = test: NMR binding of 14-3-3-ζ variant S58E to labeled integrin tail; conditions: labeled β1A
Text: as §1, §2

14-3-3-ζ [1] = molecular target: T1, 14-3-3-ζ (Homo sapiens, UniProt P63104); test: Fluorescence polarization titration of fluorescein-labeled integrin tails with 14-3-3-ζ; format: binding; conditions: 1 μM, ex 485 nm, em 520 nm; for binding to 14-3-3-ζ by fluorescence polarization, in words: fluorescein-labeled tail
T1 construct: His10 (cleaved yes); made in house
T1 sequence (P63104 1-245): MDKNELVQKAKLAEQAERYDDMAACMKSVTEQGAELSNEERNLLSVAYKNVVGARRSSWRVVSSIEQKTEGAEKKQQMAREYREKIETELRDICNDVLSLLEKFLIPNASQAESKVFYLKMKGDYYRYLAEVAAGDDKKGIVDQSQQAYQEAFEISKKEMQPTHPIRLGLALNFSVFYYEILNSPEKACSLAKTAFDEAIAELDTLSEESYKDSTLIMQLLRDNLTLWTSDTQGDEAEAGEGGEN
Protocol: Fig. 6 Fluorescence polarization and ITC of interactions between integrin tails and 14-3-3-ζ. (a) Fluorescence polarization titrations of fluorescein-labeled β1A, β3 and α4 with 14-3-3-ζ. […] (b–d) ITC sensorgram of an in-cell 200 μM β1A, β2 (same as in Fig. 5a) or β3 samples injected with 2 mM 14-3-3-ζ.
For fluorescence polarization experiments, integrin tails were labeled with fluorescein-5-maleimide (Invitrogen) linked to an engineered C-terminal Cys residue. Measurements were performed using 96-well microplates (Corning) in a PHERAstar FS microplate reader (BMG Labtech). Fluorescein-labeled integrin tails at 1 μM concentration were excited at 485 nm, and polarization was recorded at 520 nm.

14-3-3-ζ [2] = molecular target: T1, 14-3-3-ζ; test: 15N-1H HSQC NMR titration of 15N-labeled integrin tails with unlabeled 14-3-3-ζ; format: binding; conditions: 15N-labeled tail 0.1 mM, equimolar unlabeled 14-3-3-ζ; NMR buffer pH 6.5, 25 °C
Protocol: as §2

14-3-3-ζ [3] = molecular target: T1, 14-3-3-ζ; test: ITC of integrin tail fragments with 14-3-3-ζ; format: binding; conditions: 298 K, pH 6.5, fragment in cell, 14-3-3-ζ in syringe
Protocol: Phosphorylated α4 synthetic peptides were purchased from GL Biochem Ltd. (Shanghai). All recombinant proteins and synthetic peptides were prepared in 20 mM sodium phosphate and 50 mM NaCl (pH 6.5), and concentrations were determined by UV absorbance at 280 nm. ITC experiments using a VP-ITC200 instrument (MicroCal) were performed at 298 K as follows: the cell (volume, ~ 200 μl) contained the different integrin tail fragments, and the syringe (volume, ~ 40 μl) contained 14-3-3-ζ. A first injection of 2 μl was followed by 15 injections of 2.5 μl, with a stirring speed of 1500 rpm and a delay between injections of 180 s. A blank titration was performed by injecting 14-3-3-ζ into buffer to take the heat of dilution into account. Experiments were repeated twice for each sample. Raw data were processed and fitted with MicroCal Origin software using a one-site model where the error function is calculated as the sum of the squared deviations between the data and the model curve.

[4] = tested on: paxillin (residues 1–323); test: NMR test of α4 integrin tail interaction with paxillin N-terminal region; format: binding; conditions: paxillin residues 1–323 with all LD motifs
Protocol: (§3) The interactions of α4 and 14-3-3-ζ with paxillin were also investigated. The association of paxillin with α4 has been detected using pull-down experiments with glutathione S-transferase fusion proteins[22,32,33] and, very recently, by NMR in a study that also reports the solution structure of the α4 integrin tail.[34] […] The possibility that a paxillin/14-3-3-ζ association depends on phosphorylation was also assessed. The ELM (eukaryotic linear motif) server[35] indicated three putative 14-3-3 binding motifs in the paxillin N-terminus; of these, only one has been reported to be phosphorylated in vivo[36] (Supplementary Fig. 1a). […] The recent report of paxillin binding to α4 detected by NMR used shorter paxillin fragments than us, covering the LD2–LD4 region.[34] It is possible that, in the whole N-terminal paxillin, the α4 interaction sites are masked, which would explain the absence of an interaction in our studies.
Samples were prepared in NMR buffer (pH 6.5) with 5% D2O, and experiments were performed at 25 °C. Titration experiments were collected on a 500-MHz spectrometer using a water flip-back-embedded gradient enhanced ^15N–^1H HSQC pulse sequence.[46] […] Data were processed using NMRPipe[47] and analyzed with the programs CARA/XEASY[48] or CCPN Analysis.[49]

[5] = tested on: paxillin (residues 1–323); test: ITC test of pairwise interaction with paxillin N-terminal region; format: binding
Protocol: as §3
Phosphorylated α4 synthetic peptides were purchased from GL Biochem Ltd. (Shanghai). All recombinant proteins and synthetic peptides were prepared in 20 mM sodium phosphate and 50 mM NaCl (pH 6.5), and concentrations were determined by UV absorbance at 280 nm. […] Raw data were processed and fitted with MicroCal Origin software using a one-site model where the error function is calculated as the sum of the squared deviations between the data and the model curve.

| Substance | change of integrin tail resonance intensity with 14-3-3-ζ S58A compared to wt, in words (14-3-3-ζ S58A) | change of integrin tail resonance intensity with 14-3-3-ζ S58E, in words (14-3-3-ζ S58E) | binding to 14-3-3-ζ by fluorescence polarization, in words (14-3-3-ζ [1]) | Kd (14-3-3-ζ [1]; fluorescence polarization, tail labeled with fluorescein-5-maleimide at engineered C-terminal Cys, single-site model) [µM] | change of integrin tail resonances on addition of 14-3-3-ζ, in words (14-3-3-ζ [2]) | binding to 14-3-3-ζ by ITC, in words (14-3-3-ζ [3]) | interaction with paxillin by NMR, in words [4] | interaction with paxillin by ITC, in words [5] |
| --- | --- | --- | --- | --- | --- | --- | --- | --- |
| GS KLLMIIHDRREFAKFEKEKMNAKWDTGENPIYKSAVTTVVNPKYEGK (GSKLLMIIHDRREFAKFEKEKMNAKWDTGENPIYKSAVTTVVNPKYEGK; left off: His10, N-terminal, cleaved) [β1A wt, recombinant β1A integrin tail, residues 752–798] | significant reduction in β1A resonance intensity change | the intensities change even less | clearly binds | 95 ± 16 | intensity reduction for several resonances | – | – | – |
| GPLGSKAGFFKRQYKSILQEENRRDSWSYINSKSNDD [α4 wt, recombinant α4 integrin cytoplasmic tail, residues 1001–1032] | – | – | No binding was detected | – | significant decrease in α4 amide resonance intensities | a Kd could not be determined by ITC; also recorded: the interaction is weak, in the millimolar range | no specific interaction | no pairwise interaction was detected by ITC |
